From US8753666B2, “Punctal plugs and methods of delivering therapeutic agents” (Alcon Research, Ltd., priority 2007, dated 2014)

Experiment: Release of AL-6598 from silicone dies of three sizes in PBS at 37° C.
Assay type: physicochemical
Conditions: silicone die containing 10% AL-6598, 10x10x1 mm, 10x5x1 mm and 5x5x1 mm, FIG. 8
Experimental: To study the effect of surface area on the release of prostaglandin from a silicone matrix, prostaglandin release from silicone dies of three different sizes was measured. The largest silicone die measured 10 mm×10 mm×1 mm. A ½ size device (10 mm×5 mm×1 mm) and a ¼ size device (5 mm×5 mm×1 mm) were also used in this study. Each silicone die contained 10% AL-6598, which is a DP class prostaglandin analogue. The silicone die were placed in phosphate buffered saline (PBS) at 37° C. and the amount of AL-6598 released was measured.

## CC(C)OC(=O)COC/C=C\C[C@@H]1[C@@H](CC[C@@H](O)C2CCCCC2)[C@H](O)C[C@H]1Cl [AL-6598]
  release of AL-6598 from silicone die (effect of surface area): dependent on the size of the silicone die with the larger surface area resulting in the more rapid drug release
